One test concerns Escherichia coli. The test can be described thus: In vitro antibacterial activity against Escherichia coli GC6265. The class given is functional.
Test [1] deals with Beta-lactamase TEM (Escherichia coli) (UniProt P62593).
Description: In vitro antibacterial activity against Escherichia coli GC4206 Beta-lactamase TEM-1 of class A enzyme
The target in another test is Beta-lactamase (Enterobacter cloacae, UniProt P05364). The test can be described thus: In vitro inhibitory activity against Beta-lactamase AmpC of class C enzyme.
Test [2] has as its target Beta-lactamase (Enterobacter cloacae) (UniProt P05364). Conditions: Pseudomonas aeruginosa.
Description: In vitro antibacterial activity against Pseudomonas aeruginosa Beta-lactamase AmpC of class C enzyme
Test [3] shares this target. The note with it: Serratia marcescens.
The test system of another test is Serratia marcescens. Nature of the test: In vitro antibacterial activity against Serratia marcescens GC4132 Beta-lactamase AmpC of class C enzyme. The class given is functional.

From ChEMBL document CHEMBL1145799, “Spirocyclopropyl beta-lactams as mechanism-based inhibitors of serine beta-lactamases. Synthesis by rhodium-catalyzed cyclopropanation of 6-diazopenicillanate sulfone” (J Med Chem, 2003) come the findings set out here.

Structures are written as SMILES. A value given as a limit tells only on which side of the number the result lay.

Chain of Beta-lactamase (P05364 whole entry): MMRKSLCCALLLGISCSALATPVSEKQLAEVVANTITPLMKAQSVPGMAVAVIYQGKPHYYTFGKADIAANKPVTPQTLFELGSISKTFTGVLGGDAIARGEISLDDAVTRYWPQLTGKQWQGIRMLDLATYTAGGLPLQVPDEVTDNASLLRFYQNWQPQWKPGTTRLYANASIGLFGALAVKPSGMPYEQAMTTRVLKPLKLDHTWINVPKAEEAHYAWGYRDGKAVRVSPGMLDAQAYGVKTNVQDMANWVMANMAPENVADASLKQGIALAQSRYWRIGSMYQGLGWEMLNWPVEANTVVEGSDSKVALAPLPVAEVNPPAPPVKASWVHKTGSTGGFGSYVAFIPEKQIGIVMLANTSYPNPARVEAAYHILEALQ
Chain of Beta-lactamase TEM (Escherichia coli) (P62593 whole entry): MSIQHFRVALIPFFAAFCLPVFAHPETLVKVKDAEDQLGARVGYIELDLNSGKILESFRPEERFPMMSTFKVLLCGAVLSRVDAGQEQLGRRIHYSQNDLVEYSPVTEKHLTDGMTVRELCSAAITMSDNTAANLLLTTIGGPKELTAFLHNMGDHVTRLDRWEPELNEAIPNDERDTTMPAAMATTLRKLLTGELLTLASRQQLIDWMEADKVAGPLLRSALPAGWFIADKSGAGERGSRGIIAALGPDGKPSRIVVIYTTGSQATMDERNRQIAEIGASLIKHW
Chain of Beta-lactamase (Enterobacter cloacae) (P05364 21-381 limits assumed): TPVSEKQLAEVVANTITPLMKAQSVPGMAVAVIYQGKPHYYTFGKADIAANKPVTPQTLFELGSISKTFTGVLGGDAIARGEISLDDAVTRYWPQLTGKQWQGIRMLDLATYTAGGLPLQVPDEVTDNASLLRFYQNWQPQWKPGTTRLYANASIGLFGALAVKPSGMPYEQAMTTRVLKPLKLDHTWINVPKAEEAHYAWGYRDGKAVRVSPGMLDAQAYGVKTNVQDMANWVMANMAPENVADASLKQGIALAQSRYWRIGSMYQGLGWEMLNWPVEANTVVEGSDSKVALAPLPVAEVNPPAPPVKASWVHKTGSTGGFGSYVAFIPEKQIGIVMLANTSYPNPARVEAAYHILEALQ

In the test with Escherichia coli, `CCN1CCN(C(=O)N[C@@H](C(=O)N[C@@H]2C(=O)N3[C@@H]2SC(C)(C)[C@@H]3C(=O)O)c2ccccc2)C(=O)C1=O` [PIPERACILLIN] returned an MIC of more than 64 µg/mL. In test [1], `CC1(C)[C@H](C(=O)O)N2C(=O)[C@]3(C[C@@H]3OC3CCCCC3)[C@H]2S1(=O)=O.CCN1CCN(C(=O)N[C@@H](C(=O)N[C@@H]2C(=O)N3[C@@H]2SC(C)(C)[C@@H]3C(=O)O)c2ccccc2)C(=O)C1=O` [listing 1 of 2 here] had an MIC of 8 µg/mL. In turn, `CC1(C)[C@H](C(=O)O)N2C(=O)[C@]3(C[C@@H]3OC3CCCCC3)[C@H]2S1(=O)=O` yielded an IC50 on Beta-lactamase of 30 nM. This counts as double-digit nanomolar. As to `CC1(C)[C@H](C(=O)O)N2C(=O)[C@]3(C[C@@H]3OC3CCCCC3)[C@H]2S1(=O)=O.CCN1CCN(C(=O)N[C@@H](C(=O)N[C@@H]2C(=O)N3[C@@H]2SC(C)(C)[C@@H]3C(=O)O)c2ccccc2)C(=O)C1=O` [listing 2 of 2 here], in the test with Escherichia coli, the MIC was found to be 64 µg/mL. Regarding `CC(C)(C)[Si](C)(C)O[C@H]1C[C@]12C(=O)N1[C@@H](C(=O)O)C(C)(C)S(=O)(=O)[C@@H]12.CCN1CCN(C(=O)N[C@@H](C(=O)N[C@@H]2C(=O)N3[C@@H]2SC(C)(C)[C@@H]3C(=O)O)c2ccccc2)C(=O)C1=O` [listing 1 of 2 here], the MIC was determined as 4 µg/mL in test [1], 8 µg/mL in test [2] and 8 µg/mL in test [3]. `CC1(C)[C@H](C(=O)O)N2C(=O)[C@@]3(C[C@@H]3OC3CCCCC3)[C@H]2S1(=O)=O` gave an IC50 on Beta-lactamase of 3200 nM. Same read-out and setting: for `CC(C)(C)[Si](C)(C)O[C@H]1C[C@]12C(=O)N1[C@@H](C(=O)O)C(C)(C)S(=O)(=O)[C@@H]12` the value was 20 nM; for `CC(C)(C)[Si](C)(C)O[C@H]1CC12C(=O)N1C(C(=O)O)C(C)(C)S(=O)(=O)[C@@H]12` (single isomer, unassigned), 4100 nM.

On to `CC(C)(C)[Si](C)(C)O[C@H]1C[C@]12C(=O)N1[C@@H](C(=O)O)C(C)(C)S(=O)(=O)[C@@H]12.CCN1CCN(C(=O)N[C@@H](C(=O)N[C@@H]2C(=O)N3[C@@H]2SC(C)(C)[C@@H]3C(=O)O)c2ccccc2)C(=O)C1=O` [listing 2 of 2 here], for which the MIC against Escherichia coli is less than 0.06 µg/mL. Compound `CCN1CCN(C(=O)N[C@@H](C(=O)N[C@@H]2C(=O)N3[C@@H]2SC(C)(C)[C@@H]3C(=O)O)c2ccccc2)C(=O)C1=O.C[C@]1(Cn2ccnn2)[C@H](C(=O)O)N2C(=O)C[C@H]2S1(=O)=O` [listing 1 of 2 here] had an MIC in test [1] of 4 µg/mL. Compound `CC(C)(C)[Si](C)(C)O[C@@H]1CC12C(=O)N1[C@@H](C(=O)O)C(C)(C)S(=O)(=O)[C@@H]12` (single isomer, unassigned) came in with an IC50 against Beta-lactamase of 400 nM. This counts as sub-micromolar. On the same count and under the same terms, the same measure for `CC1(C)[C@H](C(=O)O)N2C(=O)[C@@]3(C[C@H]3OC3CCCCC3)[C@H]2S1(=O)=O`: more than 3200 nM. In the test on Serratia marcescens, `CCN1CCN(C(=O)N[C@@H](C(=O)N[C@@H]2C(=O)N3[C@@H]2SC(C)(C)[C@@H]3C(=O)O)c2ccccc2)C(=O)C1=O.C[C@]1(Cn2ccnn2)[C@H](C(=O)O)N2C(=O)C[C@H]2S1(=O)=O` [listing 2 of 2 here] gave an MIC of 32 µg/mL.
